One block for each compound: values may come before it. Active and inactive are the calls of the source. The rule behind the calls is not given here.
Assays:
LNCaP [1] = assay: Cytotoxicity against human LNCAP cells assessed as reduction in cell viability after 24 hrs by MTT assay; assay type: functional, cell-based
[2] = biological target: T1, Androgen receptor (Homo sapiens) (UniProt P10275); assay: Antagonist activity at androgen receptor in human LNCAP cells assessed as decrease in testosterone-induced PSA expression levels at 10 uM after 24 hrs by Western blot analysis; assay type: cell-based
T1 sequence (whole entry): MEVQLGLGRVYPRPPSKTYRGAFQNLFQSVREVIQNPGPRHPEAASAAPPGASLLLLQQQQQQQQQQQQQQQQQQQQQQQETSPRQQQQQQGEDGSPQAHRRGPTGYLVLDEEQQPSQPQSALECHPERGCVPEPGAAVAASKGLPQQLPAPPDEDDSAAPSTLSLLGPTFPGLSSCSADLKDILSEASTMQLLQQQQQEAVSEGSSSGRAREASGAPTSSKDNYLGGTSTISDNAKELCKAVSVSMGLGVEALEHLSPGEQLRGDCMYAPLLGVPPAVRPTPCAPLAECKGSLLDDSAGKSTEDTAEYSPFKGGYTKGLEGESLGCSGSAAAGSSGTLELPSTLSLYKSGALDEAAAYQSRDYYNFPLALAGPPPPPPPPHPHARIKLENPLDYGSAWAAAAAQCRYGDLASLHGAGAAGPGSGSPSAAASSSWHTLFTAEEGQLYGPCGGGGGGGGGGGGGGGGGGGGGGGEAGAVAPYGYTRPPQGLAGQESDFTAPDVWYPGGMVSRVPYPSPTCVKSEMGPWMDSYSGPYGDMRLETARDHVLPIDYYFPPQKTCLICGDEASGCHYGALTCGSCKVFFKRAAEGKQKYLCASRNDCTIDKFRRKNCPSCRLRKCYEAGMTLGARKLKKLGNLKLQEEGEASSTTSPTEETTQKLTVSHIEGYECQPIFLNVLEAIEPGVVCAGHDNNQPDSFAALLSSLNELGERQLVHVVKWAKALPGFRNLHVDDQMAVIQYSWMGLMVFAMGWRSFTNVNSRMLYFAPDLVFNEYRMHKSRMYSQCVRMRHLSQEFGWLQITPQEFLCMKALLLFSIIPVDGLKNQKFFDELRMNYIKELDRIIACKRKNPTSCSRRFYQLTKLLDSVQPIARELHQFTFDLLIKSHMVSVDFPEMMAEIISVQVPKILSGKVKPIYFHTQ

[3] = biological target: T1, Androgen receptor (Homo sapiens); assay: Antagonist activity at human androgen receptor expressed in African green monkey COS7 cells at 7.5 uM after 24 hrs by ARE-dual luciferase reporter gene assay; assay type: cell-based
PC-3 = assay: Antiproliferative activity against human PC3 cells assessed as decrease in cell viability after 24 hrs by MTT assay; assay type: functional, cell-based; settings: PC-3, 24 h
DU-145 = assay: Antiproliferative activity against human DU145 cells assessed as decrease in cell viability after 24 hrs by MTT assay; assay type: functional, cell-based; settings: DU-145, 24 h
LNCaP [4] = assay: Antiproliferative activity against human LNCAP cells assessed as decrease in cell viability after 24 hrs by MTT assay; assay type: functional, cell-based
[5] = biological target: T2, Alpha-1A adrenergic receptor (Homo sapiens) (UniProt P35348); assay: Antagonist activity at human alpha1A adrenergic receptor expressed in Chem1 cells assessed as decrease in epinephrine-induced calcium mobilization by measuring relative fluorescence unit at 10 uM by fluoforte dye based fluorescence assay relative to epinephrine; assay type: functional, cell-based
T2 sequence (whole entry): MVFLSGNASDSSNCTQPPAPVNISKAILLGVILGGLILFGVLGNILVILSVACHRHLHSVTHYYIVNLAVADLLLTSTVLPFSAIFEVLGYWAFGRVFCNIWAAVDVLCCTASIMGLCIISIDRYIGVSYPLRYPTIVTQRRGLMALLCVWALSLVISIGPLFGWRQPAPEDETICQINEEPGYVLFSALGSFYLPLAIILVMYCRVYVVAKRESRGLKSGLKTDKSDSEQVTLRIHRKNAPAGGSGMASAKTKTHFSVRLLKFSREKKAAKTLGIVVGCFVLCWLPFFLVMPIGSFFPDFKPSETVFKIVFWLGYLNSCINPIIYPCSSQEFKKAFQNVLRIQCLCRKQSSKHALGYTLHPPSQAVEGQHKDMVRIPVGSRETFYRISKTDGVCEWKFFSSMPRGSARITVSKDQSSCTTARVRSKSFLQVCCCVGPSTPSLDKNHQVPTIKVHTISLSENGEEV

Rattus norvegicus [6] = assay: Anti-androgenic activity in benign prostatic hyperplasia Sprague-Dawley rat model assessed as reduction in citral-induced prostate weight at 10 mg/kg, po qd co-administered with citral for 21 days starting post 8 days of citral alone treatment; assay type: functional; design: scale not given: the % may be the effect or the level left
Rattus norvegicus [7] = assay: Toxicity in benign prostatic hyperplasia Sprague-Dawley rat model assessed as effect on seminal vesicle weight at 10 mg/kg, po qd co-administered with citral for 21 days starting post 8 days of citral alone treatment; assay type: organism-based; settings: in vivo
Rattus norvegicus [8] = assay: Toxicity in benign prostatic hyperplasia Sprague-Dawley rat model assessed as effect on testis weight at 10 mg/kg, po qd co-administered with citral for 21 days starting post 8 days of citral alone treatment; assay type: organism-based; settings: in vivo
Rattus norvegicus [9] = assay: Toxicity in benign prostatic hyperplasia Sprague-Dawley rat model assessed as effect on epididymis weight at 10 mg/kg, po qd co-administered with citral for 21 days starting post 8 days of citral alone treatment; assay type: organism-based; settings: in vivo
Rattus norvegicus [10] = assay: (§1) Anti-androgenic activity in citral-induced benign prostatic hyperplasia Sprague-Dawley rat model assessed as reduction in stromal component at 10 mg/kg, po qd co-administered with citral for 21 days starting post 8 days of citral alone treatment by hematoxyline and eosin staining based light microscopic analysis; assay type: functional, organism-based
Rattus norvegicus [11] = assay: as §1, with “tissue differentiation into stroma” for “stromal component”; assay type: functional, organism-based
Rattus norvegicus [12] = assay: as §1, with “tissue differentiation into acinar compartments” for “stromal component”; assay type: functional, organism-based
[13] = biological target: T2, Alpha-1A adrenergic receptor (Homo sapiens); assay: Antagonist activity at human alpha1A adrenergic receptor expressed in Chem1 cells assessed as decrease in epinephrine-induced calcium mobilization by measuring relative fluorescence unit at 1 uM by fluoforte dye based fluorescence assay relative to epinephrine; assay type: functional, cell-based

Compound: O=C(CCl)N1CCN(c2ccc([N+](=O)[O-])cc2C(F)(F)F)CC1
EC50 (LNCaP [1]): 53.3 µM

Compound: O=C(CN1CCN(c2ccc([N+](=O)[O-])cc2C(F)(F)F)CC1)N1CCN(c2ccc([N+](=O)[O-])cc2C(F)(F)F)CC1
EC50 (LNCaP [1]): 46.6 µM

Activity [2]: Active
Activity [3]: Active
EC50 (PC-3): 65 µM
EC50 (DU-145): > 70.6 µM
EC50 (LNCaP [4]): 9.8 µM
fold change (FC) [5]: 1.6
Compound: O=C(CCl)N1CCN(c2ccc([N+](=O)[O-])cc2)CC1
EC50 (LNCaP [1]): 9.8 µM
Activity (Rattus norvegicus [6]): 31.6 - 32%
Activity (Rattus norvegicus [7]): Non-Toxic
Activity (Rattus norvegicus [8]): Non-Toxic
Activity (Rattus norvegicus [9]): Non-Toxic
Activity (Rattus norvegicus [10]): Active
Activity (Rattus norvegicus [11]): Active
Activity (Rattus norvegicus [12]): Active

Compound: O=C(N1CCN(c2ccccn2)CC1)N1CCN(c2ccc([N+](=O)[O-])cc2C(F)(F)F)CC1
EC50 (LNCaP [1]): > 80 µM

Compound: O=C(N1CCN(c2ccc([N+](=O)[O-])c(C(F)(F)F)c2)CC1)N1CCN(c2ccccn2)CC1
EC50 (LNCaP [1]): 79.8 µM

Compound: O=C(CCl)N1CCN(c2ncccn2)CC1
EC50 (LNCaP [1]): 71.3 µM

Compound: O=C(N1CCN(c2ccccn2)CC1)N1CCN(c2ccccn2)CC1
EC50 (LNCaP [1]): > 80 µM

fold change (FC) [13]: 1.6
Compound: CCOc1ccccc1OCCN[C@H](C)Cc1ccc(OC)c(S(N)(=O)=O)c1

Compound: O=C(N1CCN(c2ccc([N+](=O)[O-])cc2)CC1)N1CCN(c2ccc([N+](=O)[O-])cc2)CC1
EC50 (LNCaP [1]): 72.3 µM

Compound: COc1ccccc1N1CCN(C(=O)CN2CCN(c3ncccn3)CC2)CC1
EC50 (LNCaP [1]): 48.2 µM

Activity [2]: Active
EC50 (PC-3): > 80 µM
EC50 (DU-145): > 80 µM
EC50 (LNCaP [4]): 7.6 µM
fold change (FC) [5]: 1.6
Compound: COc1ccccc1N1CCN(C(=O)CCl)CC1
EC50 (LNCaP [1]): 7.6 µM

Compound: O=C(CN1CCN(c2ccccn2)CC1)N1CCN(c2ncccn2)CC1
EC50 (LNCaP [1]): 50 µM

Compound: O=C(CN1CCN(c2ccccn2)CC1)N1CCN(c2ccc([N+](=O)[O-])cc2)CC1
EC50 (LNCaP [1]): 55.2 µM
